The text below walks through data of patent US6558900B2, “Regulation of apoptosis and in vitro model for studies thereof” (Emory University, priority 1996, dated 2003).

The test deals with CPP32. In words: Assay for dATP-dependent activation of CPP32 protease (cleavage of in vitro translated 35S-labeled CPP32 in HeLa S-100). The note with it: 1 mM nucleotide, 30° C., 1 hr. The test is classed as biochemical, hamster. The protocol: The samples were subjected to SDS-PAGE and transferred to a nitrocellulose filter. The filter was exposed to film for 16 hours at room temperature. In FIG. 2B, a 50 μl aliquot of HeLa S-100 (250 μg) was incubated with each aliquot of 6 μl hamster liver nuclei at 37° C. for 2 hr in the presence of 1 mM indicated nucleotide. The DNA was isolated, analyzed by 2% agarose gel electrophoresis and visualized by ethidium bromide staining.
To test the nucleotide specificity for activation of CPP32 and DNA fragmentation, HeLa cell S-100 was incubated with in vitro translated, ^35S-labeled CPP32 in the presence of 1 mM of various nucleotides (FIG. 2A).
A PCR fragment encoding amino acids 29-277 of hamster CPP32 [Wang et al. (1996) supra] was cloned into NdeI and BamHI sites of pET 15b vector (Novagen, Madison, Wis.). The resulting fusion protein of six histidines with hamster CPP32 (amino acids 29-277) was translated in a TNT T7 transcription/translation kit (Promega, Madison, Wis.) in the presence of ^35S-methionine according to the manufacturer's instructions. The translated protein was passed through a 1 ml nickel affirmity column (Qiagen, Chatsworth, Calif.) equilibrated with buffer A. After washing the column with 10 ml of buffer A, the translated CPP32 was eluted with buffer A containing 250 mM imidazole. Human SREBP-2 was translated in a TNT SP6 transcription/translation kit as described [Wang et al. (1995) [Hua et al. (1993) Proc. Natl. Acad. Sci. USA 90, 11603-11607]. Full length human PARP cDNA [Chemey et al. (1987) Proc. Natl. Acad. Sci. USA 84, 8370-8374] was cloned into SmaI and EcoRI sites of pBK-CMV vector (Stratagene, La Jolla, Calif.) and translated in a TNT T7 transcription/translation kit [Promega, Madison, Wis.]. The translated SREBP-2 and PARP (200 μl each) were purified by passing each translation mixture through a 10-ml Sephadex G-25 gel-filtration column equilibrated with buffer A. The translated proteins contained within the exclusion volume of the column were collected.
CPP32 was translated and purified as described above. Aliquot of 3 μl of the in vitro translated CPP32 was incubated with the indicated protein fraction, nucleotides, and 1 mM additional MgCl2 at 30° C. for 1 hour in a final volume of 20 μl of buffer A. At the end of the incubation, 7 μl of 4×SDS sample buffer was added to each reaction. After boiling for 3 min, each sample was subjected to a 15% SDS-polyacrylamide gel electrophoresis (SDS-PAGE). The gel was transferred to a nitrocellulose filter which was subsequently exposed to a Kodak X-OMAT AR X-ray film (Eastman Kodak, Rochester, N.Y.) for 16 hr at room temperature.

For `Nc1ncnc2c1ncn2[C@H]1C[C@H](O)[C@@H](COP(=O)(O)OP(=O)(O)OP(=O)(O)O)O1` [dATP, deoxyadenosine-5-triphosphate], the “cleavage of 35S-labeled CPP32 (nucleotide specificity)” value is “Cleavage occurred”.
